From patent publication US4570006A, “Amidine compound, process for producing same and anti-complement agent comprising same” (Torii & Co. Ltd., priority 1981, dated 1986)

How the values were obtained:
complement = experiment: Inhibition of complement mediated hemolysis; type: cell-based
Method: The complement mediated hemolysis is widely used as a means to determine the titration of complement. The principle of this method is based on the fact that hemolysis if caused by the activation of complement, when the latter is added to a complex (immune complex) of erythrocytes and the antibody thereof. The degree of hemolysis varies in proportion to the amount of complement added. Therefore, when a known amount of complement admixed with a Cl esterase inhibitor is used, the hemolysis must be suppressed in proportion to the inhibitory activity.
The anti-Cl esterase (Clr, Cls) activity was determined according to the method of Okamura et al. [K. Okamura, M. Muramatsu and B. Fujii, Biochem. Biophys. […] The figures in Table 2 have the following meanings: […]

Cls = biological target: T1, Cls (Homo sapiens, UniProt P09871); experiment: Anti-Cl esterase activity, Cls (ATEE hydrolysis); type: biochemical; details: hydrolysis of ATEE; read-out: Anti-Cl activity, Cls (50% inhibition)
T1 sequence (P09871 438-688 limits assumed): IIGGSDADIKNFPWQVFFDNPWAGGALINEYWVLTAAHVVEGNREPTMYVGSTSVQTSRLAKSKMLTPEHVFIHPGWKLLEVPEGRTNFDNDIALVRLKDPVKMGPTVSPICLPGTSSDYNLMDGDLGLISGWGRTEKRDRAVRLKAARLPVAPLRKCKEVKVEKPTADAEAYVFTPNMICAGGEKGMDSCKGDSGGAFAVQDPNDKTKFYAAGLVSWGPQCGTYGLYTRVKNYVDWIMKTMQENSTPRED
T1 sequence (P09871 16-437 limits assumed): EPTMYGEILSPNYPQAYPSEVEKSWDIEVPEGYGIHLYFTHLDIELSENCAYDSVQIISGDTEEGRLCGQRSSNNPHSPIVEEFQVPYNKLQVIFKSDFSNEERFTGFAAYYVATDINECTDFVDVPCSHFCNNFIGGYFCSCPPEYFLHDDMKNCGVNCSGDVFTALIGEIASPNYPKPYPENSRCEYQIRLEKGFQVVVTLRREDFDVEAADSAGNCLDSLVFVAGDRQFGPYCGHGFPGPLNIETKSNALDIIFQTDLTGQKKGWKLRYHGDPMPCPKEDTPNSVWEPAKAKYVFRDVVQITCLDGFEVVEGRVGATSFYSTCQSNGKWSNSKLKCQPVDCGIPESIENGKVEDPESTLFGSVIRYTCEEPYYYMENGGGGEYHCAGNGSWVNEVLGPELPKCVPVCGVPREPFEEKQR
Method: The anti-Cl esterase (Clr, Cls) activity was determined according to the method of Okamura et al. [K. Okamura, M. Muramatsu and B. Fujii, Biochem. Biophys. […] The figures in Table 2 have the following meanings:
Cls: Molar concentration of the test compound which inhibits 50% of the ability of Cls to hydrolyse ATEE (acetyltyrosin ethyl ester).

Trypsin = biological target: T2, Trypsin (Bos taurus, UniProt P00760); experiment: Anti-trypsin activity (inhibition of TAME hydrolysis); type: biochemical; details: read-out: ID50, trypsin
T2 sequence (P00760 24-246): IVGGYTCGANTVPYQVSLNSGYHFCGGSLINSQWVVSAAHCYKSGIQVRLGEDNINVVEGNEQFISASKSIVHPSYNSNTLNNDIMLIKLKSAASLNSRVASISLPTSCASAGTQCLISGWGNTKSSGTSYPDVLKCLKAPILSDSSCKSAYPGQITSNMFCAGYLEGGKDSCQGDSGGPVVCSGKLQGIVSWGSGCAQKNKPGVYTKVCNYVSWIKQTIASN
Method: (§1) The anti-trypsin, anti-plasmin, anti-kallikrein and anti-thrombin activities were determined according to the method of Muramatsu et al. [M. Muramatsu, T. Onishi, S. Makino, Y. Hayashi and S. Fujii, J. of Biochem., 58, 214 (1965)]. The data summarized in Table 1 are expressed in terms of molar concentration (ID50) of the test compound which inhibits 50% of the activity of each enzyme to hydrolyze TAME (tosylarginine methyl ester). The compound No. corresponds to the compound number shown in Examples.

Kallikrein = experiment: Anti-kallikrein activity (inhibition of TAME hydrolysis); type: biochemical; details: read-out: ID50, kallikrein
Method: as §1

Thrombin = Thrombin (Homo sapiens, UniProt P00734); experiment: biochemical; details: TAME hydrolysis; read-out: ID50, thrombin
Clr = biological target: T3, Clr (Homo sapiens, UniProt P00736); experiment: Anti-Cl esterase activity, Clr (AAME hydrolysis); type: biochemical; details: hydrolysis of AAME; read-out: Anti-Cl activity, Clr (ID50)
T3 sequence (P00736 464-705 limits assumed): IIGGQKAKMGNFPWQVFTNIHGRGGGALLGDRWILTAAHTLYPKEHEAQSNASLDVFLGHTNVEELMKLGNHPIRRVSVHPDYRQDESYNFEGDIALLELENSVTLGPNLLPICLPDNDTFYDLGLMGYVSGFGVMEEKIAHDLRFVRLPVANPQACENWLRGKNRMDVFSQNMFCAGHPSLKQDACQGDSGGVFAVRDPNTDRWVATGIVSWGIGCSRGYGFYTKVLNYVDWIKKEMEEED
T3 sequence (P00736 18-463 limits assumed): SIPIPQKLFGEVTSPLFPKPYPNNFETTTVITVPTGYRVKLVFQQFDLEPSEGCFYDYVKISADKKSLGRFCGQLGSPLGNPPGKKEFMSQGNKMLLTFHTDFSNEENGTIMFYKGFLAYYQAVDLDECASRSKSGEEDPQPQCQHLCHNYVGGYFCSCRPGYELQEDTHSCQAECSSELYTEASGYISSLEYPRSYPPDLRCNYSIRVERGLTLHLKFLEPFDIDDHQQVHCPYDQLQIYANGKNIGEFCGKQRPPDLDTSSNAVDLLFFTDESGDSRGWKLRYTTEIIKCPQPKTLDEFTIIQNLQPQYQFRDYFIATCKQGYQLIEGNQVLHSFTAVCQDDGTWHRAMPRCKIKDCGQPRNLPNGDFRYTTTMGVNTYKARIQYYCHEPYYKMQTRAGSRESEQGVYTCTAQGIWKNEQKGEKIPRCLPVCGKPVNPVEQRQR
Method: The anti-Cl esterase ([…]) activity was determined according to the method of Okamura et al. [K. Okamura, M. Muramatsu and B. Fujii, Biochem. Biophys.

Plasmin = Plasmin (Homo sapiens, UniProt P00747); experiment: Anti-plasmin activity (inhibition of TAME hydrolysis); type: biochemical; details: read-out: ID50, plasmin
Chain of Plasmin (P00747 581-810 limits assumed, species assumed): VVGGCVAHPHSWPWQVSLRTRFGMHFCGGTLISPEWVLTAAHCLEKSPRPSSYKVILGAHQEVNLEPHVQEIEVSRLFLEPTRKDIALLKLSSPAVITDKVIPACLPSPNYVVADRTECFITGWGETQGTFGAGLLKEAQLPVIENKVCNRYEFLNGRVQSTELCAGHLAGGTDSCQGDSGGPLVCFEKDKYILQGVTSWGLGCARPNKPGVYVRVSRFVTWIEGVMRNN
Chain of Plasmin (P00747 97-580 limits assumed, species assumed): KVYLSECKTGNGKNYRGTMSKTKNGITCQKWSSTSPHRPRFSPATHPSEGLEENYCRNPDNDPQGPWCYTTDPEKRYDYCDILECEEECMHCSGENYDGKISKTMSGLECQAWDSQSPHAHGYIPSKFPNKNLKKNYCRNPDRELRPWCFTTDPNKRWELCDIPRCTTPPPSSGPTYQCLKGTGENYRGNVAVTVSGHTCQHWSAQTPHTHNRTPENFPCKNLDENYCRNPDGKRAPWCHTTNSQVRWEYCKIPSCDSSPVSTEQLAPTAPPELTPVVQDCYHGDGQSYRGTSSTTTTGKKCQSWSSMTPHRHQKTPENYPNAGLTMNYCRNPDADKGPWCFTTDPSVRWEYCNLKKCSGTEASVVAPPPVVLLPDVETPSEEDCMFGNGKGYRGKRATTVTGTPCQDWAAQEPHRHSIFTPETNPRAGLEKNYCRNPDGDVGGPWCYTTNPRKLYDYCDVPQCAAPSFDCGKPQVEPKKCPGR
Method: as §1

| IC50 (Cls) | IC50 (Trypsin) | IC50 (Kallikrein) | IC50 (Thrombin) | IC50 (Clr) | IC50 (Plasmin) | Compound | Inhibition of complement mediated hemolysis (%) (complement; compound at 1 × 10^-4) | Inhibition of complement mediated hemolysis (%) (complement; compound at 1 × 10^-5) | Inhibition of complement mediated hemolysis (%) (complement; compound at 1 × 10^-6) | Inhibition of complement mediated hemolysis (%) (complement; compound at 1 × 10^-7) |
| --- | --- | --- | --- | --- | --- | --- | --- | --- | --- | --- |
| 0.3 µM | 400 nM | 2000 nM | 60 nM | 0.2 µM | 400 nM | N=C(N)c1ccc(OC(=O)c2ccccc2)c(Cl)c1 [Compound 26, 4-amidino-2-chlorophenyl benzoate] | 100.0% | 99.4% | 61.6% | 16.7% |
| 0.5 µM | 50 nM | 400 nM | 60 nM | 1 µM | 300 nM | CC(=O)Nc1ccc(C(=O)Oc2ccc(C(=N)N)cc2C(=O)c2ccccc2)cc1 [Compound 56, 4-amidino-2-benzoylphenyl 4-acetylaminobenzoate] | 99.1% | 98.1% | 88.1% | 20.4% |
| 5 µM | 10000 nM | 60000 nM | 200 nM | 7 µM | 20000 nM | COc1cc(C(=N)N)ccc1OC(=O)c1ccccc1 [Compound 23, 4-amidino-2-methoxyphenyl benzoate] |  |  |  |  |
|  | 30 nM | 400 nM | < 10 nM | 1 µM | 200 nM | CSc1ccc(C(=O)Oc2ccc(C(=N)N)cc2C(=O)c2ccccc2)cc1 [Compound 49] | 83.8% | 94.6% | 97.5% | 75.1% |
|  | > 10000 nM | > 10000 nM | > 10000 nM | > 10 µM | > 10000 nM | N=C(N)c1ccc(OC(=O)CCN)c(C(=O)c2ccccc2)c1 [Compound 11, 4-amidino-2-benzoylphenyl 3-aminopropionate] | 17.4% | 2.5% | 2.5% | 3.5% |

Further lines, the molecule ahead of its results:

| Compound | IC50 (Cls) | IC50 (Trypsin) | IC50 (Kallikrein) | IC50 (Thrombin) | IC50 (Clr) | IC50 (Plasmin) | Inhibition of complement mediated hemolysis (%) (complement; compound at 1 × 10^-4) | Inhibition of complement mediated hemolysis (%) (complement; compound at 1 × 10^-5) | Inhibition of complement mediated hemolysis (%) (complement; compound at 1 × 10^-6) | Inhibition of complement mediated hemolysis (%) (complement; compound at 1 × 10^-7) |
| --- | --- | --- | --- | --- | --- | --- | --- | --- | --- | --- |
| COC(=O)c1ccc(C(=O)Oc2ccc(C(=N)N)cc2C(=O)c2ccccc2)cc1 [Compound 50] | > 10 µM | 4000 nM | > 10000 nM | 200 nM | 9 µM | 500 nM | 98.8% | 75.4% | 6.9% | 0% |
| N=C(N)c1ccc(OC(=O)CCCCCN)c(C(=O)c2ccccc2)c1 [Compound 13, 4-amidino-2-benzoylphenyl 6-aminocaproate] | > 10 µM | > 10000 nM | > 10000 nM | > 10000 nM | > 10 µM | > 10000 nM | 15.9% | 9.8% | 0% | 0% |
| N=C(N)c1ccc(OC(=O)CCCCCNC(=O)OCc2ccccc2)c(C(=O)c2ccccc2)c1 [Compound 12, 4-amidino-2-benzoylphenyl 6-benzyloxycarbonylaminocaproate] | 5 µM | 6000 nM | > 10000 nM | 4000 nM | > 10 µM | > 10000 nM | 91.3% | 57.8% | 15.0% | 3.8% |
| N=C(N)c1ccc(OC(=O)[C@H]2CC[C@H](CNC(=O)OCc3ccccc3)CC2)c(C(=O)c2ccccc2)c1 [Compound 20] | 0.3 µM | 1000 nM | 600 nM | 500 nM | > 10 µM | 600 nM | 96.8% | 80.3% | 13.0% | 1.8% |
| COC(=O)c1cc(C(=N)N)ccc1OC(=O)c1ccc(C=O)cc1 [Compound 51] | 3 µM | 200 nM | > 10000 nM | 900 nM | > 10 µM | 300 nM | 99.1% | 90.9% | 15.0% | 0% |
| N=C(N)c1ccc(OC(=O)c2ccc(OCc3ccccc3)cc2)c(C(=O)c2ccccc2)c1 [Compound 45, 4-amidino-2-benzoylphenyl 4-benzyloxybenzoate] | 0.4 µM | 20 nM | 400 nM | 200 nM | 0.9 µM | 300 nM | 0% | 90.2% | 6.0% | 0% |
| Cc1cc(OC(=O)c2ccccc2)ccc1C(=N)N [Compound 22, 4-amidino-3-methylphenyl benzoate] | > 10 µM | > 10000 nM | > 10000 nM | 2000 nM | 6 µM | > 10000 nM | 22.8% | 0% | 0% | 0% |
| COc1cc(C(=N)N)ccc1OC(=O)c1ccc(CN)cc1 [Compound 58, 4-amidino-2-methoxyphenyl 4-aminomethylbenzoate] | 4 µM | 8000 nM | 2000 nM | > 10000 nM | > 10 µM | 8000 nM | 93.4% | 20.0% | 3.0% | 0% |
